Results on 24 compounds are retold here after patent US10927126B2, “Positive allosteric modulators of the muscarinic acetylcholine receptor M4” (Vanderbilt University, priority 2016, dated 2021).

Broadly, the pEC50 is −log10 of the EC50, conventionally taken in molar units. As usually defined, the Emax is the maximal effect, on the per cent scale that the assay sets.

Structures are written as SMILES. pEC50: −log10 of the molar value. Structures can show the parent of a compound that is named as a salt.

The test has as its target T1, Human M4 (Homo sapiens, UniProt P08173).
T1 sequence (P08173 1-479): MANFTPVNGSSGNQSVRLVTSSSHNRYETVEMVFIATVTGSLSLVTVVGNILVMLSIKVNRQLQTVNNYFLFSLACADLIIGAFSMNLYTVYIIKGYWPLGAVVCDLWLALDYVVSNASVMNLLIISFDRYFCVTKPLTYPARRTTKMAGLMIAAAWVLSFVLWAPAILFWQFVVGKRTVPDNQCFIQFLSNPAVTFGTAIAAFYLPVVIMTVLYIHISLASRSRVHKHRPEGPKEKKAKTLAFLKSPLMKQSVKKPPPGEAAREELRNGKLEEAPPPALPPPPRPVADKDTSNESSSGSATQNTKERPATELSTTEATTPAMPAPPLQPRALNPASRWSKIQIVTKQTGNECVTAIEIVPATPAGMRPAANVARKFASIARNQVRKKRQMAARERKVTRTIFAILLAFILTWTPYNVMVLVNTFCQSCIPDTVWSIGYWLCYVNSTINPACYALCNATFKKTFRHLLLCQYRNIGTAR
Briefly: mAChR M4 cell-based functional assay (calcium flux, potentiation of EC20 acetylcholine response). Details: Emax: dose or concentration left out as unconfirmed.
On to `Cc1cc(C)c2c(n1)sc1c(NC3CCCC3)nccc12` [Compound 1, N-cyclopentyl-2,4-dimethylthieno[2,3-b: 5,4-c]dipyridin-8-amine], for which the pEC50 was 6.91 and the Emax came out at 67%.

Consider `Cc1cc(C)c2c(n1)sc1c(N3CCCC3)nccc12` [Compound 2, 2,4-dimethyl-8-(pyrrolidin-1-yl)thieno[2,3-b:5,4-c′]dipyridine], for which the pEC50 is 6.63 and the Emax stood at 97.8%.

`Cc1cc(C)c2c(n1)sc1c(NC3CCC3)nccc12` [Compound 3, N-cyclobutyl-2,4-dimethylthieno[2,3-b:5,4-c′]dipyridin-8-amine dihydrochloride]: the pEC50 is 7.07 and the maximal effect (Emax) was determined as 89.8%.

Take `Cc1cc(C)c2c(n1)sc1c(N(C)C)nccc12` [Compound 4, N,N,2,4-tetramethylthieno[2,3-b:5,4-c′]dipyridin-8-amine]: the pEC50 is 6.69 and the Emax came to 81.9%.

In the case of `Cc1nnc2sc3c(NC4CCCC4)nccc3c2c1C` [Compound 5, N-Cyclopentyl-3,4-dimethyl-pyrido[4′,3′:4,5]thieno[2,3-c]pyridazin-8-amine Hydrochloride], the pEC50 is 7.91 and the Emax was 80.3%.

As for `Cc1nnc2sc3c(N4CCCC4)nccc3c2c1C` [Compound 6, 3,4-dimethyl-8-pyrrolidin-1-yl-pyrido[4′,3′:4,5]thieno[2,3-c]pyridazine hydrochloride], the pEC50 is 7.63 and the Emax is 73%.

Regarding `Cc1nnc2sc3c(NC4CCC4)nccc3c2c1C` [Compound 7, N-cyclobutyl-3,4-dimethyl-pyrido[4′,3′:4,5]thieno[2,3-c]pyridazin-8-amine hydrochloride], the pEC50 was 7.22 and the Emax is 80.2%.

Take `Cc1nnc2sc3c(NC4CC4)nccc3c2c1C` [Compound 8, N-cyclopropyl-3,4-dimethyl-pyrido[4′,3′:4,5]thieno[2,3-c]pyridazin-8-amine hydrochloride]: the pEC50 is 7.92 and the Emax worked out at 74.8%.

In the case of `COc1ccc(CNc2nccc3c2sc2nnc(C)c(C)c23)cc1` [Compound 9, N-[(4-methoxyphenyl)methyl]-3,4-dimethyl-pyrido[4′,3′:4,5]thieno[2,3-c]pyridazin-8-amine hydrochloride], the Emax turned out to be 76.8%.

Regarding `Cc1nnc2sc3c(NC4CN(c5ncc(C(F)(F)F)cn5)C4)nccc3c2c1C` [Compound 10, 3,4-dimethyl-N-[1-[5-(trifluoromethyl)pyrimidin-2-yl]azetidin-3-yl]pyrido[4′,3′:4,5]thieno[2,3-c]pyridazin-8-amine hydrochloride], the pEC50 is 7.17 and the Emax was 74.4%.

Take `Cc1nnc2sc3c(NCc4ccc(OC(F)(F)F)cc4)nccc3c2c1C` [Compound 11, 3,4-dimethyl-N-[[4-(trifluoromethoxy)phenyl]methyl] pyrido[4′,3′:4,5]thieno[2,3-c]pyridazin-8-amine hydrochloride]: the pEC50 is 5.99 and the Emax amounted to 72.8%.

In the case of `Cc1nnc2sc3c(NC4CN(c5ncc(F)cn5)C4)nccc3c2c1C` [Compound 12, N-[1-(5-fluoropyrimidin-2-yl)azetidin-3-yl]-3,4-dimethyl-pyrido[4′,3′:4,5]thieno[2,3-c]pyridazin-8-amine hydrochloride], the pEC50 is 7.74 and the Emax came out at 77.4%.

Consider `Cc1nnc2sc3c(NCc4ccc(C(=O)N5CCOCC5)cc4)nccc3c2c1C` [Compound 13, [4-[[(3,4-dimethylpyrido[4′,3′:4,5]thieno[2,3-c]pyridazin-8-yl)amino]methyl]phenyl]-morpholino-methanone], for which the pEC50 was 7.18 and the Emax is 81.9%.

Turning to `COc1ccc(CNc2nccc3c2sc2nnc(C)c(C)c23)cc1F` [Compound 14, N-[(3-fluoro-4-methoxy-phenyl)methyl]-3,4-dimethylpyrido[4′,3′:4,5]thieno[2,3-c]pyridazin-8-amine hydrochloride], the negative logarithm of the EC50 (pEC50) was 7.84 and the Emax was 91.3%.

For `Cc1nnc2sc3c(NCc4ccc(C(C)(C)O)cc4)nccc3c2c1C` [Compound 15, 2-[4-[[(3,4-dimethylpyrido[4′,3′:4,5]thieno[2,3-c]pyridazin-8-yl)amino]lmethyl]phenyl]propan-2-ol], the pEC50 is 7.46 and the Emax was found to be 97.4%.

In the case of `Cc1nnc2sc3c(NCc4ccc(F)c(F)c4)nccc3c2c1C` [Compound 16, N-[(3,4-difluorophenyl)methyl]-3,4-dimethyl-pyrido[4′,3′:4,5]thieno[2,3-c]pyridazin-8-amine hydrochloride], the pEC50 is 6.71 and the Emax stood at 81.5%.

Consider `Cc1nnc2sc3c(NCc4ccc(C(F)(F)F)c(F)c4)nccc3c2c1C` [Compound 17, N-[[3-fluoro-4-(trifluoromethyl)phenyl]methyl]-3,4-dimethyl-pyrido[4′,3′:4,5]thieno[2,3-c]pyridazin-8-amine hydrochloride], for which the pEC50 is 5.76 and the Emax is 66.6%.

In the case of `Cc1nnc2sc3c(NCc4ccc(OCC5CC5)c(F)c4)nccc3c2c1C` [Compound 18, N-[[4-(cyclopropylmethoxy)-3-fluoro-phenyl]methyl]-3,4-dimethyl-pyrido[4′,3′:4,5]thieno[2,3-c]pyridazin-8-amine hydrochloride], the pEC50 was 6.17 and the Emax turned out to be 88.6%.

`Cc1nnc2sc3c(NC4CN(c5ccc(F)c(F)c5)C4)nccc3c2c1C` [Compound 19, N-[1-(3,4-difluorophenyl)azetidin-3-yl]-3,4-dimethyl-pyrido[4′,3′:4,5]thieno[2,3-c]pyridazin-8-amine hydrochloride]: the pEC50 is 6.79 and the Emax was 74.2%.

In the case of `Cc1nnc2sc3c(NCc4ccc(C(C)(C)O)c(F)c4)nccc3c2c1C` [Compound 20, 2-[4-[[(3,4-dimethylpyrido[4′,3′:4,5]thieno[2,3-c]pyridazin-8-yl)amino]methyl]-2-fluoro-phenyl]propan-2-ol], the pEC50 was 7.40 and the Emax was found to be 85.6%.

For `Cc1nnc2sc3c(NCc4ccc(C(C)(C)O)cc4F)nccc3c2c1C` [Compound 21, 2-[4-[[(3,4-dimethylpyrido[4′,3′:4,5]thieno[2,3-c]pyridazin-8-yl)amino]methyl]-3-fluoro-phenyl]propan-2-ol], the pEC50 was 7.10 and the Emax amounted to 80%.

Turning to `Cc1nnc2sc3c(NC4CN(c5ccc(C#N)cn5)C4)nccc3c2c1C` [Compound 22, 6-[3-[(3,4-dimethylpyrido[4′,3′:4,5]thieno[2,3-c]pyridazin-8-yl)amino]azetidin-1-yl]pyridine-3-carbonitrile], the pEC50 is 7.77 and the Emax worked out at 117%.

Turning to `Cc1nnc2sc3c(N4CCCC4)ncc(Cl)c3c2c1C` [Compound 23, 5-Chloro-3,4-dimethyl-8-pyrrolidin-1-yl-pyrido[4′,3′:4,5]thieno[2,3-c]pyridazine Hydrochloride], the pEC50 was 6.45 and the Emax came to 36.5%.

As to `Cc1cc(C)c2c(n1)sc1c(NC3CN(c4ncc(C(F)(F)F)cn4)C3)nccc12` [Compound 24, 2,4-dimethyl-N-(1-(5-(trifluoromethyl)pyrimidin-2-yl)azetidin-3-yl)thieno[2,3-b:5,4-c′]dipyridin-8-amine], the pEC50 was 6.82 and the maximal response (Emax) was 80.1%.
